Literature values as cited in patent publication US20070003615A1, “Nanoparticulate clopidogrel and aspirin combination formulations” (Elan Pharma International Limited, priority 2005, published 2007).
Structures can show the parent of a compound that is named as a salt. Where two headings read alike, the source gives them in different places.

Key:
[1] = dry air versus contact with moisture
[2] = not given; remark: listed apart in the source
[3] = in vivo

SMILES: CC(=O)Oc1ccccc1C(=O)O [Aspirin, 2-acetoxybenzoic acid]
- stability in air / moisture [1]: stable in dry air, but gradually hydrolyses in contact with moisture

SMILES: COC(=O)[C@H](c1ccccc1Cl)N1CCc2sccc2C1 [Clopidogrel bisulfate, methyl (+)-(S)-α-(2-chorophenyl)-6,7-dihydrothieno[3,2-c]pyridine-5(4H)-acetate sulfate (1:1)]
- solubility in ethyl ether (ethyl ether): practically insoluble
- solubility in methanol (methanol): dissolves freely
- solubility in methylene chloride (methylene chloride): dissolves sparingly
- solubility at pH 1.0 (pH 1.0): freely soluble
- solubility in water (water at neutral pH): practically insoluble
- rate of combined end point of cardiovascular death, MI, or stroke (and with refractory ischemia) ([2]; patients with acute coronary syndrome): decrease the rate
- rate of combined end point of new ischemic stroke, new MI, and other vascular death ([2]; recent MI, recent stroke, or established arterial disease): reduce the rate
- gastric irritation (esophagus and stomach) [3]: significant gastric irritation

SMILES: COC(=O)[C@H](c1ccccc1Cl)N1CCc2sccc2C1 [clopidogrel]
- solubility in water (water, pH not stated): practically insoluble
